Patent US5140023A, “Azatetracycle compounds” (G. D. Searle & Co., priority 1991, dated 1992)
Counter-ions that a name gives are not always drawn.

How the values were obtained:
[1] = target: T1, 5-HT3 (Canis lupus familiaris, UniProt Q1HHV2); assay: Antiemetic activity against cisplatin-induced emesis in beagle dogs; type: in vivo; details: for ED50: dog, iv, i.v. 30 min before and 2 h after cisplatin 3 mg/kg i.v., emetic episodes counted 5 h, read-out: ID50 (50% inhibition of the number of emetic episodes)
T1 construct: from tissue; host or cells: living beagle dogs (in vivo, i.v. dosing); endogenous receptor
T1 sequence (Q1HHV2 24-483): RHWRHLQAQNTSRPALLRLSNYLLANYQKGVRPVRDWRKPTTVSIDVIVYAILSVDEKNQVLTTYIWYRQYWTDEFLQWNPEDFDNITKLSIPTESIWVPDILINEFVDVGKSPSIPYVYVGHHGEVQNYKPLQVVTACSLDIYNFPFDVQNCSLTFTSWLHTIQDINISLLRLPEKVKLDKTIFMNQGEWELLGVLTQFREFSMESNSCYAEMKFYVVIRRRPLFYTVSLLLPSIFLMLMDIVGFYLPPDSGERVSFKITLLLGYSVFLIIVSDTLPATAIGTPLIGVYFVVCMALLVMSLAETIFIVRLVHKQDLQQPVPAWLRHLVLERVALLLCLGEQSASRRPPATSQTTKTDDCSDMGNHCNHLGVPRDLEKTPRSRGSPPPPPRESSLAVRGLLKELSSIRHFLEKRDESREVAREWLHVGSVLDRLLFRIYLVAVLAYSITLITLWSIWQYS
Protocol: 5-HT3 antagonism can be determined in a model of emesis induced by the chemotherapeutic agent cisplatin as described herein.
Antiemetic activity of test compound against cisplatin was determined in beagle dogs. Dogs are pretreated I.V. with a test compound dissolved in DMSO thirty minutes before administration of cisplatin 3 mg/kg.i.v. with a second dose of compounds given i.v. two hours after cisplatin administration. Emetic episodes are counted for 5 hours following cisplatin administration. The latency for first emesis and the number of emetic episodes for test compounds are compared with results for control treatment (vehicle).
Per cent inhibition of emesis for each animal is determined by the following formula: [formula] A mean inhibitory dose (ID50) which results in 50% inhibition of the number of emetic episodes is determined.

[2] = tested on: gastric emptying; assay: Rat gastric emptying of a test meal (prokinetic activity); type: in vivo, rat (male Charles River, Crl: COBS, CD (SD) BR); details: 30 min before test meal, rats sacrificed 60 min after meal
Description: Alternatively, the compounds of formula I wherein p is 1, A is NH and B is NH or 0 can be prepared by treating ArNH2 (37) with compounds of formula 38 (an isocyanate or activated carbonyl derivative of azatetracycles 11, 26, 32 or 35). L1 is as described above. […] Prokinetic activity of a compound can be determined by measuring the enhancement of gastric emptying of a meal in a rat model to which the compound has been administered. This method for determining prokinetic activity of a compound has been described by Droppleman, et al, J. Pharmacol. and Methods 4: 227-230 (1980).
A test meal for measuring gastric emptying in rats was prepared. Ten grams of methylcellulose (2% solution=15 centipoises; Aldrich Chemical Company, Milwaukee, Wis.) was added to 200ml of cold water and mixed at 20,000 rpm in a Waring blender to insure dispersion and hydration of the methylcellulose. In addition, two beef bouillon cubes (Wyler's, Columbus, Ohio) dissolved in 100ml of warm water was added to the mixture, followed by 16g of casein (Hammersten, Schwartz/Mann, Orangeburg, N.Y.), 8g of powdered confectioners sugar and 8g of cornstarch. The ingredients were mixed for two minutes at 20,000 rpm and the resultant test meal was refrigerated for 48 hours to allow trapped air to escape. Male Charles River Rats, Crl: COBS, CD (SD) BR Strain, 180-200g body weight, were used in groups of six animals. The animals were food deprived for 24 hours prior to the experiment with access to water ad libitum. The compounds to be evaluated were prepared in a 0.5% aqueous methylcellulose solution. If insoluble, the mixture was homogenized for two minutes at 5500 rpm using a Try R-Stir-R. The compounds were injected intraperitoneally at a volume of 5 ml/kg, 30 minutes before the test meal, (3.0ml/rat i.g.). Control animals received only the vehicle. Sixty minutes after the test meal, the rats were sacrificed by cervical dislocation. The stomachs were removed intact and weighed. The stomachs were kept opened, gently rinsed with tap water, blotted dry with paper towelling, and the empty stomach weighed. The difference between the weight of the full and empty stomach is indicative of the amount of meal remaining in the stomach. The amount of meal remaining in the stomach was subtracted from the weight of 3ml of the test meal to determine the amount of food emptied from the stomach during the test. Weight of the test meal was determined by weighing three samples (3ml) at the beginning and three samples at the end of each experiment and calculating the mean. The mean and standard error of the amount of meal emptied were calculated.
The results of following the protocol and comparing representative compounds herein to known prokinetic agents, metoclopramide and cisapride, are shown in Table III.

Cn1nc(C(=O)N[C@H]2[C@H]3C[C@@H]4CN(C3)C[C@@H]42)c2ccccc21 (relative stereo) [Example 27, (±)-N-(hexahydro-1H-2,5β-methano-3aα,6aα-cyclopenta[c]pyrrol-4α-yl)-1-methyl-1H-indazole-3-carboxamide, hydrochloride]
% inhibition (of emesis) ([1]; cisplatin 3 mg/kg i.v., printed in parentheses under 0.10 mg/kg iv): 72% | ED50 [1]: 0.1 mg/kg

CCN(CC)CCNC(=O)c1cc(Cl)c(N)cc1OC [METOCLOPRAMIDE, metoclopramide]
% increase in gastric emptying ([2]; 1.0 mg/kg ip): 2.6% | % increase in gastric emptying ([2]; 3.0 mg/kg ip): 11.2% | % increase in gastric emptying ([2]; 10.0 mg/kg ip): 34.1%

CN1[C@@H]2CC[C@H]1C[C@@H](OC(=O)c1c[nH]c3ccccc13)C2 [ICS 205-930]
ED50 [1]: 0.01 mg/kg

COc1cc(N)c(Cl)cc1C(=O)N[C@H]1[C@H]2C[C@@H]3CN(C2)C[C@@H]31 (relative stereo) [Example 12, 2-methoxy-4-amino-5-chloro-N-(hexahydro-1H-2,5B-methano-3aα, 6aα-cyclopenta[c]pyrrol-4α-yl)benzamidehydrochloride]
% increase in gastric emptying ([2]; 0.001 mg/kg ip): -5.8% | % increase in gastric emptying ([2]; 0.01 mg/kg ip): 2.0% | % increase in gastric emptying ([2]; 0.03 mg/kg ip): 16.4% | % increase in gastric emptying ([2]; 0.1 mg/kg ip): 31.3% | % increase in gastric emptying ([2]; 0.3 mg/kg ip): 32.1% | % increase in gastric emptying ([2]; 1.0 mg/kg ip): 45.3% | ED50 [1]: 0.03 mg/kg

COc1cc(N)c(Cl)cc1C(=O)NC1CN2CCC1CC2 (centres unmarked) [ZACOPRIDE]
% increase in gastric emptying ([2]; 0.3 mg/kg ip): 1.4% | % increase in gastric emptying ([2]; 1.0 mg/kg ip): 11.8% | % increase in gastric emptying ([2]; 3.0 mg/kg ip): 9.3% | % increase in gastric emptying ([2]; 10.0 mg/kg ip): 18.5% | % increase in gastric emptying ([2]; 30.0 mg/kg ip): 6.3%

COc1cc(N)c(Cl)cc1C(=O)NC1CCN(CCCOc2ccc(F)cc2)CC1OC (centres unmarked) [Cisapride, cisapride]
% increase in gastric emptying ([2]; 1.0 mg/kg ip): 9.8% | % increase in gastric emptying ([2]; 3.0 mg/kg ip): 15.4% | % increase in gastric emptying ([2]; 10.0 mg/kg ip): 25.0% | ED50 [1]: 0.6 mg/kg

COc1cc(N)c(Cl)cc1C(=O)NC1CCN2CCCC1C2 (centres unmarked) [BRL-24924]
% increase in gastric emptying ([2]; 1.0 mg/kg ip): 29.8% | % increase in gastric emptying ([2]; 3.0 mg/kg ip): 34.2% | % increase in gastric emptying ([2]; 10.0 mg/kg ip): 35.2% | ED50 [1]: 0.1 mg/kg
